From patent publication US10004701B2, “Methods and compositions for treating infection” (UNIVERSITY OF ROCHESTER, priority 2012, dated 2018)
Counter-ions that a name gives are not always drawn. Like-named read-outs stand apart in the source and are kept apart here.

Tests used:
Experiment in all cases: AK assay 384-well format, Prestwick library screening
[1] = test system: S. aureus strain USA300-0114; type: cell-based, Staphylococcus aureus; conditions: 50 μM final drug concentration; for fold induction at 50 µM: Staphylococcus aureus, USA300, 3 h
[2] = test system: E. coli; type: cell-based, Escherichia coli; conditions: 50 μM final drug concentration; for fold induction at 50 µM: Escherichia coli, 3 h
[3] = test system: P. aeruginosa; type: cell-based, Pseudomonas aeruginosa; conditions: 50 μM final drug concentration; for fold induction at 50 µM: Pseudomonas aeruginosa, 3 h
[4] = test system: K. pneumoniae; type: cell-based, Klebsiella pneumoniae; conditions: 50 μM final drug concentration; for fold induction at 50 µM: Klebsiella pneumoniae, 3 h
[5] = test system: E. cloacae; type: cell-based, Enterobacter cloacae; conditions: 50 μM final drug concentration; for fold induction at 50 µM: Enterobacter cloacae, 3 h
[6] = test system: E. faecium; type: cell-based, Enterococcus faecium; conditions: 50 μM final drug concentration; for fold induction at 50 µM: Enterococcus faecium, 3 h
[7] = test system: A. baumannii strain 98-37-09; type: cell-based, Acinetobacter baumannii; conditions: 50 μM final drug concentration; for fold induction at 50 µM: Acinetobacter baumannii, 983709, 3 h
[8] = planktonic S. aureus, 384-well, cutoff for positive-scoring molecules 3-fold increase, read-out: AK-based Prestwick Library Screening Results: S. aureus (increase in extracellular AK activity)
[9] = planktonic E. coli, 384-well, cutoff for positive-scoring molecules 3-fold increase, read-out: AK-based Prestwick Library Screening Results: E. coli (increase in extracellular AK activity)
[10] = planktonic P. aeruginosa, 384-well, cutoff for positive-scoring molecules 3-fold increase, read-out: AK-based Prestwick Library Screening Results: P. aeruginosa (increase in extracellular AK activity)
[11] = planktonic K. pneumoniae, 384-well, cutoff for positive-scoring molecules 3-fold increase, read-out: AK-based Prestwick Library Screening Results: K. pneumoniae (increase in extracellular AK activity)
[12] = planktonic E. cloacae, 384-well, cutoff for positive-scoring molecules 3-fold increase, read-out: AK-based Prestwick Library Screening Results: E. cloacae (increase in extracellular AK activity)
[13] = planktonic E. faecium, 384-well, cutoff for positive-scoring molecules 3-fold increase, read-out: AK-based Prestwick Library Screening Results: E. faecium (increase in extracellular AK activity)
[14] = planktonic A. baumannii, 384-well, cutoff for positive-scoring molecules 3-fold increase, read-out: AK-based Prestwick Library Screening Results: A. baumannii (increase in extracellular AK activity)
[15] = 384-well format, cutoff for positive-scoring molecules 3-fold increase, read-out: AK-based Prestwick Library Screening Results, S. aureus (increase in extracellular AK activity)
[16] = 384-well format, cutoff for positive-scoring molecules 3-fold increase, read-out: AK-based Prestwick Library Screening Results, E. coli (increase in extracellular AK activity)
[17] = 384-well format, cutoff for positive-scoring molecules 3-fold increase, read-out: AK-based Prestwick Library Screening Results, P. aeruginosa (increase in extracellular AK activity)
[18] = 384-well format, cutoff for positive-scoring molecules 3-fold increase, read-out: AK-based Prestwick Library Screening Results, K. pneumoniae (increase in extracellular AK activity)
[19] = 384-well format, cutoff for positive-scoring molecules 3-fold increase, read-out: AK-based Prestwick Library Screening Results, E. cloacae (increase in extracellular AK activity)
[20] = 384-well format, cutoff for positive-scoring molecules 3-fold increase, read-out: AK-based Prestwick Library Screening Results, E. faecium (increase in extracellular AK activity)
[21] = 384-well format, cutoff for positive-scoring molecules 3-fold increase, read-out: AK-based Prestwick Library Screening Results, A. baumannii (increase in extracellular AK activity)
[22] = planktonic, cutoff for positive-scoring molecules 3-fold increase

Cc1cc2c(cc1S(N)(=O)=O)S(=O)(=O)CCC2 [Meticrane]
fold induction at 50 µM ([1]; 384-well format, […], read-out: AK-based Prestwick Library Screening Results, S. aureus (increase in extracellular AK activity)): 0.8 | fold induction at 50 µM ([2]; 384-well format, […], read-out: AK-based Prestwick Library Screening Results, E. coli (increase in extracellular AK activity)): 0.6 | fold induction at 50 µM ([3]; 384-well format, […], read-out: AK-based Prestwick Library Screening Results, P. aeruginosa (increase in extracellular AK activity)): 0.6 | fold induction at 50 µM ([4]; 384-well format, […], read-out: AK-based Prestwick Library Screening Results, K. pneumoniae (increase in extracellular AK activity)): 0.5 | fold induction at 50 µM ([5]; 384-well format, […], read-out: AK-based Prestwick Library Screening Results, E. cloacae (increase in extracellular AK activity)): 0.7 | fold induction at 50 µM ([6]; 384-well format, […], read-out: AK-based Prestwick Library Screening Results, E. faecium (increase in extracellular AK activity)): 0.9 | fold induction at 50 µM ([7]; 384-well format, […], read-out: AK-based Prestwick Library Screening Results, A. baumannii (increase in extracellular AK activity)): 0.8

CN1CCCC(CC2c3ccccc3Sc3ccccc32)C1 (centres unmarked) [Metixene hydrochloride]
fold induction at 50 µM ([1]; planktonic S. aureus, cutoff for positive-scoring molecules 3-fold increase, read-out: AK-based Prestwick Library Screening Results, S. aureus (increase in extracellular AK activity)): 0.7 | fold induction at 50 µM ([2]; planktonic E. coli, cutoff for positive-scoring molecules 3-fold increase, read-out: AK-based Prestwick Library Screening Results, E. coli (increase in extracellular AK activity)): 0.9 | fold induction at 50 µM ([3]; planktonic P. aeruginosa, cutoff for positive-scoring molecules 3-fold increase, read-out: AK-based Prestwick Library Screening Results, P. aeruginosa (increase in extracellular AK activity)): 0.8 | fold induction at 50 µM ([4]; planktonic K. pneumoniae, cutoff for positive-scoring molecules 3-fold increase, read-out: AK-based Prestwick Library Screening Results, K. pneumoniae (increase in extracellular AK activity)): 0.8 | fold induction at 50 µM ([5]; planktonic E. cloacae, cutoff for positive-scoring molecules 3-fold increase, read-out: AK-based Prestwick Library Screening Results, E. cloacae (increase in extracellular AK activity)): 0.8 | fold induction at 50 µM ([6]; planktonic E. faecium, cutoff for positive-scoring molecules 3-fold increase, read-out: AK-based Prestwick Library Screening Results, E. faecium (increase in extracellular AK activity)): 1 | fold induction at 50 µM ([7]; planktonic A. baumannii, cutoff for positive-scoring molecules 3-fold increase, read-out: AK-based Prestwick Library Screening Results, A. baumannii (increase in extracellular AK activity)): 1

CCN(CC)CCNC(=O)c1cc(Cl)c(N)cc1OC [Metoclopramide monohydrochloride]
fold induction at 50 µM [1, 8]: 0.9 | fold induction at 50 µM [2, 9]: 1.3 | fold induction at 50 µM [3, 10]: 1.1 | fold induction at 50 µM [4, 11]: 0.9 | fold induction at 50 µM [5, 12]: 1.6 | fold induction at 50 µM [6, 13]: 1.2 | fold induction at 50 µM [7, 14]: 1.2

Cc1ccccc1N1C(=O)c2cc(S(N)(=O)=O)c(Cl)cc2NC1C (centres unmarked) [Metolazone]
fold induction at 50 µM [1, 15]: 0.7 | fold induction at 50 µM [2, 16]: 0.8 | fold induction at 50 µM [3, 17]: 0.7 | fold induction at 50 µM [4, 18]: 0.6 | fold induction at 50 µM [5, 19]: 1 | fold induction at 50 µM [6, 20]: 0.8 | fold induction at 50 µM [7, 21]: 0.8

CC(=O)Nc1c(I)c(C(=O)N[C@H]2C(O)O[C@H](CO)[C@@H](O)[C@@H]2O)c(I)c(N(C)C(C)=O)c1I (some centres unmarked) [Metrizamide]
fold induction at 50 µM ([1]; planktonic, cutoff for positive 3-fold increase, read-out: AK-based Prestwick Library Screening Results, S. aureus (fold increase in extracellular AK activity)): 1.2 | fold induction at 50 µM ([2]; planktonic, cutoff for positive 3-fold increase, read-out: AK-based Prestwick Library Screening Results, E. coli (fold increase in extracellular AK activity)): 1.2 | fold induction at 50 µM ([3]; planktonic, cutoff for positive 3-fold increase, read-out: AK-based Prestwick Library Screening Results, P. aeruginosa (fold increase in extracellular AK activity)): 1.2 | fold induction at 50 µM ([4]; planktonic, cutoff for positive 3-fold increase, read-out: AK-based Prestwick Library Screening Results, K. pneumoniae (fold increase in extracellular AK activity)): 1 | fold induction at 50 µM ([5]; planktonic, cutoff for positive 3-fold increase, read-out: AK-based Prestwick Library Screening Results, E. cloacae (fold increase in extracellular AK activity)): 1.3 | fold induction at 50 µM ([6]; planktonic, cutoff for positive 3-fold increase, read-out: AK-based Prestwick Library Screening Results, E. faecium (fold increase in extracellular AK activity)): 1 | fold induction at 50 µM ([7]; planktonic, cutoff for positive 3-fold increase, read-out: AK-based Prestwick Library Screening Results, A. baumannii (fold increase in extracellular AK activity)): 1.3

Cc1ncc([N+](=O)[O-])n1CCO [Metronidazole]
fold induction at 50 µM [1, 15]: 0.4 | fold induction at 50 µM [2, 16]: 0.4 | fold induction at 50 µM [3, 17]: 0.3 | fold induction at 50 µM [4, 18]: 0.4 | fold induction at 50 µM [5, 19]: 0.3 | fold induction at 50 µM [6, 20]: 0.8 | fold induction at 50 µM [7, 21]: 0.4

CC(C)(C(=O)c1cccnc1)c1cccnc1 [Metyrapone]
fold induction at 50 µM ([1]; planktonic, cutoff for positive-scoring molecules 3-fold increase, read-out: AK-based Prestwick Library Screening Results, S. aureus (fold increase in extracellular AK activity)): 0.8 | fold induction at 50 µM ([2]; planktonic, cutoff for positive-scoring molecules 3-fold increase, read-out: AK-based Prestwick Library Screening Results, E. coli (fold increase in extracellular AK activity)): 0.9 | fold induction at 50 µM ([3]; planktonic, cutoff for positive-scoring molecules 3-fold increase, read-out: AK-based Prestwick Library Screening Results, P. aeruginosa (fold increase in extracellular AK activity)): 1 | fold induction at 50 µM ([4]; planktonic, cutoff for positive-scoring molecules 3-fold increase, read-out: AK-based Prestwick Library Screening Results, K. pneumoniae (fold increase in extracellular AK activity)): 0.7 | fold induction at 50 µM ([5]; planktonic, cutoff for positive-scoring molecules 3-fold increase, read-out: AK-based Prestwick Library Screening Results, E. cloacae (fold increase in extracellular AK activity)): 1.2 | fold induction at 50 µM ([6]; planktonic, cutoff for positive-scoring molecules 3-fold increase, read-out: AK-based Prestwick Library Screening Results, E. faecium (fold increase in extracellular AK activity)): 0.8 | fold induction at 50 µM ([7]; planktonic, cutoff for positive-scoring molecules 3-fold increase, read-out: AK-based Prestwick Library Screening Results, A. baumannii (fold increase in extracellular AK activity)): 1

C[C@@]1(O)CCOC(=O)C1 [Mevalonic-D, L acid lactone]
AK-based Prestwick Library Screening Results, S. aureus (fold increase in extracellular AK activity) [1, 22]: 0.9 | AK-based Prestwick Library Screening Results, E. coli (fold increase in extracellular AK activity) [2, 22]: 1.0 | AK-based Prestwick Library Screening Results, P. aeruginosa (fold increase in extracellular AK activity) [3, 22]: 0.8 | AK-based Prestwick Library Screening Results, K. pneumoniae (fold increase in extracellular AK activity) [4, 22]: 0.8 | AK-based Prestwick Library Screening Results, E. cloacae (fold increase in extracellular AK activity) [5, 22]: 0.9 | AK-based Prestwick Library Screening Results, E. faecium (fold increase in extracellular AK activity) [6, 22]: 1.0 | AK-based Prestwick Library Screening Results, A. baumannii (fold increase in extracellular AK activity) [7, 22]: 0.9

Cc1cccc(C)c1OCC(C)N (centres unmarked) [Mexiletine hydrochloride]
fold induction at 50 µM [1, 15]: 0.7 | fold induction at 50 µM [2, 16]: 0.6 | fold induction at 50 µM [3, 17]: 0.7 | fold induction at 50 µM [4, 18]: 0.6 | fold induction at 50 µM [5, 19]: 0.7 | fold induction at 50 µM [6, 20]: 0.9 | fold induction at 50 µM [7, 21]: 0.5

CN1CCN2c3ccccc3Cc3ccccc3C2C1 (centres unmarked) [Mianserine hydrochloride]
fold induction at 50 µM [1, 15]: 0.7 | fold induction at 50 µM [2, 16]: 0.7 | fold induction at 50 µM [3, 17]: 0.8 | fold induction at 50 µM [4, 18]: 0.6 | fold induction at 50 µM [5, 19]: 0.7 | fold induction at 50 µM [6, 20]: 0.9 | fold induction at 50 µM [7, 21]: 0.8

Clc1ccc(COC(Cn2ccnc2)c2ccc(Cl)cc2Cl)c(Cl)c1 (centres unmarked) [Miconazole]
fold induction at 50 µM [1, 8]: 2.2 | fold induction at 50 µM [2, 9]: 1.4 | fold induction at 50 µM [3, 10]: 1.2 | fold induction at 50 µM [4, 11]: 1.4 | fold induction at 50 µM [5, 12]: 1.6 | fold induction at 50 µM [6, 13]: 2.5 | fold induction at 50 µM [7, 14]: 4.7
